Test results published in patent publication US4151279A (priority 1978, dated 1979).

How the values were obtained:
Type in all cases: in vivo
[1] = tested on: Plasmopara viticola; experiment: Preventive Grape Downy Mildew control (detached grape leaves); conditions: detached Vitis vinifera cultivar Emperor leaves, seven to nine days after inoculation
Experimental: Compounds Nos. 1, 4, 13 and 19 were tested for the control of the grape downy mildew organism Plasmopara viticola. Detached leaves, between 70 and 85 mm in diameter, of 7-week-old Vitis vinifera cultivar Emperor grape seedlings were used as hosts. The leaves were sprayed with a solution of the test compound in acetone. The sprayed leaves were dried, inoculated with a spore suspension of the organism, placed in a humid environmental chamber and incubated at 18°-22° C. and about 100% relative humidity. Seven to nine days after inoculation, the amount of disease control was determined. The percent disease control provided by a given test compound was based on the percent disease reduction relative to untreated check plants.

[2] = tested on: Phytophthora infestans; experiment: whole plant or invertebrate; conditions: in Solanum lycopersicum, 168 h, read-out: % Control
[3] = tested on: Ersiphe polygoni; experiment: Powdery Mildew control (sprayed bean seedlings); conditions: 250-ppm solution; bean seedlings (cultivar Bountiful); inoculated one day after spray; about 10 days; relative to untreated check plants
Experimental: The powdery mildew test was made using bean seedlings (cultivar Bountiful) with well-developed primary leaves. The pathogen was Ersiphe polygoni. The bean seedlings were sprayed with a 250-ppm solution of the test compound in an acetone-water mixture containing a non-ionic emulsifier. The treated plants were inoculated one day after spray application of the test compound with the pathogen. The plants were then maintained in a greenhouse at 60-80% relative humidity and at a temperature of 20°-22° C. The rate of infection on the leaves were checked after about 10 days. The percent disease control provided by a given test compound was based on the disease reduction relative to untreated check plants.

[4] = tested on: Alternaria solani; experiment: Tomato Early Blight control (sprayed tomato seedlings); conditions: 288 h, 250-ppm solution, tomato (cultivar Bonny Best) seedlings, inoculated one day later, about 12 days, relative to untreated check plants
Experimental: Compounds of the invention were tested for the control of the Tomato Early Blight organism, Alternaria solani. Tomato (cultivar Bonny Best) seedlings of 6 to 7 weeks old were used. The tomato plants were sprayed with a 250-ppm solution of the test compound in an acetone-and-water solution containing a small amount of a non-ionic emulsifier. The sprayed plants were inoculated one day later with the organism, dried and maintained at 60-80% relative humidity for about 12 days. Percent disease control was based on the percent disease development on untreated check plants.

[5] = tested on: Botrytis cinerea; experiment: Botrytis cinerea control (preventive, harvested grape berries); conditions: 250-ppm solution; grape berries (cultivar Emperor); inoculated approximately one day later; 6-9 days after inoculation; relative to non-treated check
Experimental: Compounds Nos. 1, 8 and 11 were tested as preventive fungicides against Botrytis cinerea on harvested mature grape berries (cultivar Emperor) by the following procedure: 4 grape bunches (trimmed to approximately 50 berries) were sprayed with a 250-ppm solution of the test compound in a solution of water, acetone and a small amount of a non-ionic emulsifier. The sprayed grapes were inoculated approximately one day later with 2- to 3-week-old spores of Botrytis cinerea grown on potato dextrose agar plants. The rate of disease incidence was determined 6-9 days after inoculation, when disease symptoms are fully evident on non-treated check grapes. Infection is determined by actual count of the number of infected berries. The percent disease control provided by a test compound was calculated from the percentage disease reduction based on the non-treated check plants.

[6] = tested on: Septoria apii; conditions: celery (Utah) plants 11 weeks old; approximately 14 days; concentration not given; relative to untreated check plants

Structure (SMILES) | pest or weed control at 250 µg/mL [2] | pest or weed control at 250 µg/mL [4] | other results
CC1(c2ccccc2)OC(=O)C(Cl)(Cl)C(C(Cl)(Cl)Cl)N1OC(=O)Nc1cccc(Cl)c1 (stereo not shown) [Compound 13] | 89% |  | % Control ([1]; 100 ppm): 73%
Cc1ccc(NC(=O)ON2C(C(Cl)(Cl)Cl)CC(=O)OC2(C)C)cc1 (stereo not shown) [Compound 33] | 21% |  | % Control [3]: 96%
CC1(C)OC(=O)C(Cl)(Cl)C(C(Cl)(Cl)Cl)N1OC(=O)Nc1ccc(Cl)cc1 (stereo not shown) [Compound 14] |  | 27% | 
O=C1CC(C(Cl)(Cl)Cl)N(OC(=O)Nc2ccc(Cl)c(Cl)c2)C2(CCCCC2)O1 (stereo not shown) [Compound 5] | 56% |  | 
CC1(c2ccccc2)OC(=O)C(Cl)(Cl)C(C(Cl)(Cl)Cl)N1OC(=O)Nc1ccccc1 (stereo not shown) [Compound 8, N-(phenylcarbamyloxy)-2-methyl-2-phenyl-4-trichloromethyl-5,5-dichloro-6-oxotetrahydro-1,3-oxazine] | 97% | 84% | % Control [5]: 100%; % Control [6]: 61%
CC(C)C1(C)OC(=O)CC(C(Cl)(Cl)Cl)N1OC(=O)Nc1ccc(Cl)c(Cl)c1 (stereo not shown) [Compound 28] | 23% |  | 
CC1(C)OC(=O)C(Cl)(Cl)C(C(Cl)(Cl)Cl)N1OC(=O)Nc1ccc(Cl)c(Cl)c1 (stereo not shown) [Compound 7] | 21% | 18% | 
COc1ccc(NC(=O)ON2C(C(Cl)(Cl)Cl)C(Cl)(Cl)C(=O)OC2(C)C)cc1 (stereo not shown) [Compound 18] | 95% |  | 
O=C(Nc1ccc(Cl)cc1)ON1C(C(Cl)(Cl)Cl)C(Cl)(Cl)C(=O)OC12CCCC2 (stereo not shown) [Compound 11] | 94% | 84% | % Control [5]: 78%; % Control [6]: 42%
O=C(Nc1cccc(Cl)c1)ON1C(C(Cl)(Cl)Cl)C(Cl)(Cl)C(=O)OC12CCCC2 (stereo not shown) [Compound 12] | 68% | 33% | 
O=C(Nc1cccc(Cl)c1)ON1C(C(Cl)(Cl)Cl)C(Cl)(Cl)C(=O)OC1(c1ccccc1)c1ccccc1 (stereo not shown) [Compound 15] |  | 51% | % Control [3]: 11%
Cc1cccc(C)c1NC(=O)ON1C(C(Cl)(Cl)Cl)C(Cl)(Cl)C(=O)OC1(C)C (stereo not shown) [Compound 21] | 88% |  | 
CC1(C)OC(=O)CC(C(Cl)(Cl)Cl)N1OC(=O)Nc1ccc(Cl)c(Cl)c1 (stereo not shown) [Compound 4] | 96% |  | % Control ([1]; 100 ppm): 60%
CC1(C)OC(=O)C(Cl)(Cl)C(C(Cl)(Cl)Cl)N1OC(=O)Nc1cccc(Cl)c1 (stereo not shown) [Compound 10] | 68% | 84% | 
CC1(c2ccccc2)OC(=O)C(Cl)(Cl)C(C(Cl)(Cl)Cl)N1OC(=O)Nc1ccc(Cl)c(Cl)c1 (stereo not shown) [Compound 9] | 89% |  | 
CC(C)C1(C)OC(=O)C(Cl)(Cl)C(C(Cl)(Cl)Cl)N1OC(=O)Nc1ccccc1 (stereo not shown) [Compound 27] | 92% |  | 
CC1(C)OC(=O)CC(C(Cl)(Cl)Cl)N1OC(=O)Nc1ccccc1F (stereo not shown) [Compound 2] |  | 21% | % Control [3]: 75%
CC1(C)OC(=O)CC(C(Cl)(Cl)Cl)N1OC(=O)Nc1ccc(Cl)cc1 (stereo not shown) [Compound 24] |  |  | % Control [3]: 75%
CC(C)C1(C)OC(=O)CC(C(Cl)(Cl)Cl)N1OC(=O)Nc1ccc(Cl)cc1 (stereo not shown) [Compound 32] | 56% | 23% | % Control [3]: 100%
CCC1(C)OC(=O)CC(C(Cl)(Cl)Cl)N1OC(=O)Nc1ccc(Cl)cc1 (stereo not shown) [Compound 31] | 27% | 39% | % Control [6]: 64%
O=C(Nc1ccc(Cl)cc1)ON1C(C(Cl)(Cl)Cl)C(Cl)(Cl)C(=O)OC1(c1ccccc1)c1ccccc1 (stereo not shown) [Compound 16] |  | 68% | 
CC1(C)OC(=O)CC(C(Cl)(Cl)Cl)N1OC(=O)Nc1ccccc1 (stereo not shown) [Compound 1] |  | 21% | % Control ([1]; 250 ppm): 23%; % Control [3]: 91%; % Control [5]: 23%
